According to ChEMBL document CHEMBL4507291 (2021):

Tests used:
[1] = target: Mitogen-activated protein kinase kinase kinase 14 (Homo sapiens) (UniProt Q99558)
[2] = target: Tyrosine-protein kinase ABL1 (Homo sapiens) (UniProt P00519)
[3] = tested on: Epidermal growth factor receptor (Homo sapiens), P00533 [L858R]
[4] = target: Phosphatidylinositol 4,5-bisphosphate 3-kinase catalytic subunit alpha isoform (Homo sapiens) (UniProt P42336)
[5] = target: Phosphorylase b kinase regulatory subunit alpha, liver isoform (Homo sapiens) (UniProt P46019)
[6] = tested on: Hepatocyte growth factor receptor (Homo sapiens), P08581 [Y1235D]
[7] = target: T1, Tyrosine-protein kinase TXK (Homo sapiens) (UniProt P42681)
T1 sequence (whole entry): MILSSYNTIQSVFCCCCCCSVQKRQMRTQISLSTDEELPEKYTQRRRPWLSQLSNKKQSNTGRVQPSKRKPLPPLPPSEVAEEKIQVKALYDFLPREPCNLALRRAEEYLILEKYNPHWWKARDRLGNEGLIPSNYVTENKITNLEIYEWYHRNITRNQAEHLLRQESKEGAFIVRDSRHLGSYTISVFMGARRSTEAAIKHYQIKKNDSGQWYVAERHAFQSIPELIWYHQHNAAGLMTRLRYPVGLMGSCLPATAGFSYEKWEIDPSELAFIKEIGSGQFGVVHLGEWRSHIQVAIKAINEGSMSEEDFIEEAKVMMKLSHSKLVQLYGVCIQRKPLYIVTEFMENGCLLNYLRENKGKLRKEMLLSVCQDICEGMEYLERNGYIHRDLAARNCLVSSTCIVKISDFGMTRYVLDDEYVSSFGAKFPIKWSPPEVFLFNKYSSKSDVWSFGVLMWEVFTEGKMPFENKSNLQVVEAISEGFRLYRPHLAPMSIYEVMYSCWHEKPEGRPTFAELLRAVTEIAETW

[8] = target: Microtubule-associated serine/threonine-protein kinase 1 (Homo sapiens) (UniProt Q9Y2H9)
Chain of Microtubule-associated serine/threonine-protein kinase 1 (Homo sapiens) (Q9Y2H9 whole entry, looked up, canonical isoform): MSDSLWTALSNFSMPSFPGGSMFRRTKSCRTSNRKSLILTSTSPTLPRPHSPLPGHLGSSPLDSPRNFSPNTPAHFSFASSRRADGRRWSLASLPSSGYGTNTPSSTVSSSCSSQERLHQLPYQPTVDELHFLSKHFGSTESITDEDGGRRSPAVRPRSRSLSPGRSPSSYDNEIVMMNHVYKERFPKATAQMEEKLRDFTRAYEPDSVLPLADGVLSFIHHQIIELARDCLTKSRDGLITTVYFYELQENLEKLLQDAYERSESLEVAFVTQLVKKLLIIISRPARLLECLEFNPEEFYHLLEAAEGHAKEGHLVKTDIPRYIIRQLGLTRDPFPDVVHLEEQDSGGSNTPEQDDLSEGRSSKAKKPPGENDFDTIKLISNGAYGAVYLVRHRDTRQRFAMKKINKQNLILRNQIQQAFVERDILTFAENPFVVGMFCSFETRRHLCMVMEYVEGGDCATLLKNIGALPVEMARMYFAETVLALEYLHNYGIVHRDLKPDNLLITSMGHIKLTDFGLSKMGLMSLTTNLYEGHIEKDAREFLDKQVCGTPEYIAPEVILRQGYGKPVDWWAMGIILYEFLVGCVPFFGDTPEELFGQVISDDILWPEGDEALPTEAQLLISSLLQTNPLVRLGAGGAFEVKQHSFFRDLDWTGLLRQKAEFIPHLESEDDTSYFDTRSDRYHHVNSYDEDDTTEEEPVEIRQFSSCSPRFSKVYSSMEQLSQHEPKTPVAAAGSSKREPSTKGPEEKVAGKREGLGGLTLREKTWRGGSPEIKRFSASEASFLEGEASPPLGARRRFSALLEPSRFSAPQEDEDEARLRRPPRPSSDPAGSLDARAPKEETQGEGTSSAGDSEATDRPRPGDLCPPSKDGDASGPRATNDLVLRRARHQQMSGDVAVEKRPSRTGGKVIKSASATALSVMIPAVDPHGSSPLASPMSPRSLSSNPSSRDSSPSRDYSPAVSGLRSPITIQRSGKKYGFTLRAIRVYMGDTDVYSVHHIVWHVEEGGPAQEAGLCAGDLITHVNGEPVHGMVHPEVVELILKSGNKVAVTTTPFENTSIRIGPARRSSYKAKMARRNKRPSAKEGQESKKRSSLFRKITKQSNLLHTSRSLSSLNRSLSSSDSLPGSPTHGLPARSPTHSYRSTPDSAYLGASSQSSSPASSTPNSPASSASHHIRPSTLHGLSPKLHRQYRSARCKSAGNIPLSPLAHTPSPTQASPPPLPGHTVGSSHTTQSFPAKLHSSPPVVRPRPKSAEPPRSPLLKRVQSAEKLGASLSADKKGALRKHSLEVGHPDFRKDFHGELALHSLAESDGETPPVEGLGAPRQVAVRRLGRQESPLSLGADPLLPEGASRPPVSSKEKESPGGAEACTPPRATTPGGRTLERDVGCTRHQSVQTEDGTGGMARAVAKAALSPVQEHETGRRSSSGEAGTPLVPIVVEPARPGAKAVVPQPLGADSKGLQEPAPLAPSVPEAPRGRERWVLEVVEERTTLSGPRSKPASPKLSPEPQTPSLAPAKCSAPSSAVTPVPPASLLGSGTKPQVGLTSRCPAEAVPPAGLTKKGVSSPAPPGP

[9] = tested on: Phosphatidylinositol 4,5-bisphosphate 3-kinase catalytic subunit alpha isoform (Homo sapiens), P42336 [H1047L]
Chain of Phosphatidylinositol 4,5-bisphosphate 3-kinase catalytic subunit alpha isoform (Homo sapiens), P42336 [H1047L] (P42336 whole entry H1047L, canonical isoform): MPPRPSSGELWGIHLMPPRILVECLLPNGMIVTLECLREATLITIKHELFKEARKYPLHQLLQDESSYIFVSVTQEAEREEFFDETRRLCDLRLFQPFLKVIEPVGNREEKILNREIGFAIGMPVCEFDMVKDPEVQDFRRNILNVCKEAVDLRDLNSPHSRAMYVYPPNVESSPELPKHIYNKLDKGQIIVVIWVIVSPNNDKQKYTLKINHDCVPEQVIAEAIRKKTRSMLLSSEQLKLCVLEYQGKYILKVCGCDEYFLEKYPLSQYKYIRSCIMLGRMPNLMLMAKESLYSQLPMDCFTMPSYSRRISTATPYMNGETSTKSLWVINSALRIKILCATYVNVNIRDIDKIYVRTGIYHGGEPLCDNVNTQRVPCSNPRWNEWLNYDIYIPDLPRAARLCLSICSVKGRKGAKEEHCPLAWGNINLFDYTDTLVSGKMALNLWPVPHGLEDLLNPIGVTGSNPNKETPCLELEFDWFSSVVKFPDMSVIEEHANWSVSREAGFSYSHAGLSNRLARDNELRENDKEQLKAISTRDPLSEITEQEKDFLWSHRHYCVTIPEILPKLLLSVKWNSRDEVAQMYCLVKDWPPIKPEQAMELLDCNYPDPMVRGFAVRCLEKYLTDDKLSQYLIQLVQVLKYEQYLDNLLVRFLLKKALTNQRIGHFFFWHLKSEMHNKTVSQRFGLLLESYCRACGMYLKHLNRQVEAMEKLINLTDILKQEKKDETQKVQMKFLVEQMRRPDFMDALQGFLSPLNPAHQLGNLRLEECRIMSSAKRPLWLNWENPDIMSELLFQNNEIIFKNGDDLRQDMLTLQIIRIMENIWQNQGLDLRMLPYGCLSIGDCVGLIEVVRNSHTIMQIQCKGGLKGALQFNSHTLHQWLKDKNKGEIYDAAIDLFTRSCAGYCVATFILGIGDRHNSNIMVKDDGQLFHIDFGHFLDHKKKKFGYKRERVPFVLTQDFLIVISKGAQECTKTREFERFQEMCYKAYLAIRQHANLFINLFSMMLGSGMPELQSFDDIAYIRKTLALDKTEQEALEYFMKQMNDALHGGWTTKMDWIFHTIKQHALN

[10] = target: STE20-like serine/threonine-protein kinase (Homo sapiens) (UniProt Q9H2G2)
[11] = target: Tyrosine-protein kinase SYK (Homo sapiens) (UniProt P43405)
[12] = target: T2, Tyrosine-protein kinase Mer (Homo sapiens) (UniProt Q12866)
T2 sequence (whole entry): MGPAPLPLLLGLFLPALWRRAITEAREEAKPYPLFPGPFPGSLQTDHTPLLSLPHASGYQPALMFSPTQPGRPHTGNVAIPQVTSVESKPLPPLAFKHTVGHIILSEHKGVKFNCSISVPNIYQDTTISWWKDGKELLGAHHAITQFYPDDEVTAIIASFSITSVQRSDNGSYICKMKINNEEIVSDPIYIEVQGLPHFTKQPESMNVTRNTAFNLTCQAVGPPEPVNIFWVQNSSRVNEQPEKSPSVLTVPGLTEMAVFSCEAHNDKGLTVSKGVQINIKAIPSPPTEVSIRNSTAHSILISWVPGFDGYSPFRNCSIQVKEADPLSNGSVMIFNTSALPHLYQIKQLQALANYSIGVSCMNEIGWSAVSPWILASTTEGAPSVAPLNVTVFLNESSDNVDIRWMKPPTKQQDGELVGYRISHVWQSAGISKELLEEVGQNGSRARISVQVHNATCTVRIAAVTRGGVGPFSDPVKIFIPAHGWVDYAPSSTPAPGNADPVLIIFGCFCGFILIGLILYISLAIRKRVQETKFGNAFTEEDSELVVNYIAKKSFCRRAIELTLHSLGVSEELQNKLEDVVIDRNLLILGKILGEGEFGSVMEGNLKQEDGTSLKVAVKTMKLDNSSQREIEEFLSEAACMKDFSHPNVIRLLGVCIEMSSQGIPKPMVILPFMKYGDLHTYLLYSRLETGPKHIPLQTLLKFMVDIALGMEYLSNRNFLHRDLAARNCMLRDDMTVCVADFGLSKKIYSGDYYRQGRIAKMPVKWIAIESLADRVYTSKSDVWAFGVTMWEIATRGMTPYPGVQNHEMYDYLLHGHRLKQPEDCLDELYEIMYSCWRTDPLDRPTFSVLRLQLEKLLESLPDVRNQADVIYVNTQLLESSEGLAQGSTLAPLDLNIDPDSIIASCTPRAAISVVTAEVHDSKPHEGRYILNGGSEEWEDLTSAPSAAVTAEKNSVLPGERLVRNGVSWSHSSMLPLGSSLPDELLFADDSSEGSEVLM

[13] = target: Serine/threonine-protein kinase Nek11 (Homo sapiens) (UniProt Q8NG66)
[14] = target: Wee1-like protein kinase 2 (Homo sapiens) (UniProt P0C1S8)
Chain of Wee1-like protein kinase 2 (Homo sapiens) (P0C1S8 whole entry, looked up): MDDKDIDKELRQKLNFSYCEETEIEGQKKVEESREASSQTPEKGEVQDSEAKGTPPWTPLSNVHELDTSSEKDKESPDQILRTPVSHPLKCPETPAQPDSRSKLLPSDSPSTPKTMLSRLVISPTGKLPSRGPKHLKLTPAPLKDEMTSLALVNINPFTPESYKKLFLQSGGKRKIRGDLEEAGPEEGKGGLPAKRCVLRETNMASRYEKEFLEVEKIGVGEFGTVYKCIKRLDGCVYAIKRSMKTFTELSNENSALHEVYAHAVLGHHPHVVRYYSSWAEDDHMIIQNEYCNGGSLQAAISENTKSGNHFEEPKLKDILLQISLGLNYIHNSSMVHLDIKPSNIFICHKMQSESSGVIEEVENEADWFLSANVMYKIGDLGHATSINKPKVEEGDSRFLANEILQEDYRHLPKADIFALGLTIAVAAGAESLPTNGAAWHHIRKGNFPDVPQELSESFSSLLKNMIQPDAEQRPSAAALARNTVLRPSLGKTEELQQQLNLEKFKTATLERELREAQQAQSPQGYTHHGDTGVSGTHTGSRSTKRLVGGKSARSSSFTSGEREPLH

[15] = target: Dual specificity testis-specific protein kinase 1 (Homo sapiens) (UniProt Q15569)
[16] = target: Tyrosine-protein kinase Yes (Homo sapiens) (UniProt P07947)
[17] = target: Serine/threonine-protein kinase 38 (Homo sapiens) (UniProt Q15208)
Chain of Serine/threonine-protein kinase 38 (Homo sapiens) (Q15208 2-465 limits assumed): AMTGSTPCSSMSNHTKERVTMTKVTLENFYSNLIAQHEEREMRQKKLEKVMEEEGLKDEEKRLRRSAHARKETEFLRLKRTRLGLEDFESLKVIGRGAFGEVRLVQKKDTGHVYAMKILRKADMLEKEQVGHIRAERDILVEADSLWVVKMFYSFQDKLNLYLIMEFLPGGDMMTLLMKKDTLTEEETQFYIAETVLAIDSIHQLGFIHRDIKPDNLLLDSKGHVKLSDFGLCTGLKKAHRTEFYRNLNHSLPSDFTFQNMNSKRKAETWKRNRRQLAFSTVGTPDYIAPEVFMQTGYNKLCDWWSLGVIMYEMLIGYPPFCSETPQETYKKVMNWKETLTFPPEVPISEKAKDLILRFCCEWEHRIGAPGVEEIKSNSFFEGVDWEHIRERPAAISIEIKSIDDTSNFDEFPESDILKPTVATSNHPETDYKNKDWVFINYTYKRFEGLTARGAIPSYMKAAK

[18] = target: Serine/threonine-protein kinase PLK2 (Homo sapiens) (UniProt Q9NYY3)
[19] = tested on: Receptor-type tyrosine-protein kinase FLT3 (Homo sapiens), P36888 [R834Q]
[20] = target: Myosin light chain kinase family member 4 (Homo sapiens) (UniProt Q86YV6)
Chain of Myosin light chain kinase family member 4 (Homo sapiens) (Q86YV6 whole entry): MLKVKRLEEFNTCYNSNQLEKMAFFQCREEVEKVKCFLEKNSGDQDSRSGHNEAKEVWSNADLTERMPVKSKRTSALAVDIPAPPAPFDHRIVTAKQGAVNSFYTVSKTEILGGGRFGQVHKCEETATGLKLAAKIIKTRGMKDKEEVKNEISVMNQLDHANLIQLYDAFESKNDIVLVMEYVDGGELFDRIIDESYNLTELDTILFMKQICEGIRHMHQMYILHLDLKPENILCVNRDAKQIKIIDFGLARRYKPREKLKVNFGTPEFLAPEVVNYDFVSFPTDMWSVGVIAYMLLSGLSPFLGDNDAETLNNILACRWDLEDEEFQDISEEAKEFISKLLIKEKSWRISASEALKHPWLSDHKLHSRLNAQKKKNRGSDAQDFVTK

[21] = target: Activated CDC42 kinase 1 (Homo sapiens) (UniProt Q07912)
[22] = Compound concentration 1000.0 nM
[23] = Compound concentration 100.0 nM

Measured: residual activity

Chain of Mitogen-activated protein kinase kinase kinase 14 (Homo sapiens) (Q99558 whole entry, looked up): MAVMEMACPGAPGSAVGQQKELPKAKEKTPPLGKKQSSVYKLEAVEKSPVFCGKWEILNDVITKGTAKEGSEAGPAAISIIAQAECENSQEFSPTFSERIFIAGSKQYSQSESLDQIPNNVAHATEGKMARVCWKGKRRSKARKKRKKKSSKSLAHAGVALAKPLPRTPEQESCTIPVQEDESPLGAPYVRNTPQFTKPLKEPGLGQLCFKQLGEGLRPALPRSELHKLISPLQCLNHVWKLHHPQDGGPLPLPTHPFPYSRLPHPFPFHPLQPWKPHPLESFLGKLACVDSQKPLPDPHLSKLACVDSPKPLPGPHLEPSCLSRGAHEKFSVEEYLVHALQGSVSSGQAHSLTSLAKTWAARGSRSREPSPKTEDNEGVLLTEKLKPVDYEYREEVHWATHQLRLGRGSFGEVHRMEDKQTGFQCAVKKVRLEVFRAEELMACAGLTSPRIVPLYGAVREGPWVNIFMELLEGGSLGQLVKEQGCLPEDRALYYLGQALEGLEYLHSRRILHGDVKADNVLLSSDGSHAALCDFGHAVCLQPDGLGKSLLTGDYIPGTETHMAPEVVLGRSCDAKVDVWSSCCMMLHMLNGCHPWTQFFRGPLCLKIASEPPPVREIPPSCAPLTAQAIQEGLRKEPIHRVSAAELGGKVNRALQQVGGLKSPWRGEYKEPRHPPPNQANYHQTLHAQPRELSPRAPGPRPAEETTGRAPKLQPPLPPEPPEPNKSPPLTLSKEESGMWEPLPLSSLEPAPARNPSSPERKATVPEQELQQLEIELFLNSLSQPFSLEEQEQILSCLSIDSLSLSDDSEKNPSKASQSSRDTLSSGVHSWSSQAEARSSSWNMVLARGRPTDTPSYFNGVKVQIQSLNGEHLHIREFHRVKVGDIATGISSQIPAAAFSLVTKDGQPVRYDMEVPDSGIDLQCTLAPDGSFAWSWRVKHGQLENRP

C[C@@H]1CN(c2cc(-c3nn(C)c4ccc(OC5(C)CC5)cc34)ncn2)C[C@H](C)O1 [MLi-2-NC]
inactive: [1]; [22] 100% | [2]; [22] 79% | [3]; [22] 95% | [4]; [22] 100% | [5]; [22] 100% | [6]; [22] 87% | [7]; [22] 100% | [8]; [22] 100% | [9]; [22] 83% | [10]; [22] 100% | [11]; [22] 89% | [12]; [22] 83% | [13]; [22] 58% | [14]; [22] 96% | [15]; [22] 100% | [16]; [22] 98% | [17]; [22] 57% | [18]; [22] 68% | [19]; [22] 90% | [20]; [22] 100% | [21]; [22] 96%

C[C@@H]1CN(c2cc(-c3n[nH]c4ccc(OC5(C)CC5)cc34)ncn2)C[C@H](C)O1 [MLi-2]
inactive: [1]; [23] 64% | [2]; [23] 67% | [3]; [23] 82% | [4]; [23] 100% | [5]; [23] 91% | [6]; [23] 92% | [7]; [23] 80% | [8]; [23] 70% | [9]; [23] 87% | [10]; [23] 98% | [11]; [23] 96% | [12]; [23] 97% | [13]; [23] 100% | [14]; [23] 100% | [15]; [23] 75% | [16]; [23] 80% | [17]; [23] 87% | [18]; [23] 76% | [19]; [23] 78% | [20]; [23] 100% | [21]; [23] 79%
